The test system of test [1] is Rattus norvegicus. Put plainly: Cardioprotective activity in myocardial ischemia Sprague-Dawley rat model assessed as improvement in tissue clearance at 10 to 30 mg/kg, IG treated for 7 days consecutively followed by ISO administration daily for 2 days consecutively by H and E/Masson staining based analysis. Type of test: functional, organism-based. As to conditions: dose 10-30 mg/kg, time 9.0 day.

A short description of test [2]: Induction of H2S release in PBS at pH 7.4 measured upto 60 mins by methylene blue method. Type of test: functional.
Test [3] has as its system Rattus norvegicus. Put plainly: Cardioprotective activity in myocardial ischemia Sprague-Dawley rat model assessed as decrease in myocardial injury administered intragastrically for 7 days consecutively followed by ISO administration daily for 2 days consecutively by H and E/Masson staining based analysis. Type of test: functional, organism-based. The note with it: dose 10-30 mg/kg, route ig, time 9.0 day.

For test [4], the system named is H9c2. Put plainly: Cardioprotective activity against CoCl2-induced cellular hypoxia injury in rat H9c2 cells assessed as inhibition of CoCl2-induced morphological changes at 5 to 10 uM incubated for 24 hrs by fluorescence based analysis. The class given is functional, cell-based. The note with it: dose 5-10 µM.
Test [5] can be described thus: Induction of H2S […] activity in presence of GSSH. The class given is functional.
Test [6] relates to H9c2. Put plainly: Cardioprotective activity against CoCl2-induced cellular hypoxia injury in rat H9c2 cells assessed as reduction in hypoxia-induced apoptosis at 5 to 10 uM incubated for 24 hrs by Hoechst 33258 nuclear staining based analysis. The class given is functional, cell-based. The note with it: dose 5-10 µM.
For test [7], the system named is Rattus norvegicus. Put plainly: Cardioprotective activity against myocardial ischemia Sprague-Dawley rat model assessed as increase in PGC1-alpha level in myocardial tissue at 10 to 30 mg/kg, IG treated for 7 days consecutively followed by ISO administration daily for 2 days consecutively by Western blot analysis. The class given is functional, organism-based. The note with it: dose 10-30 mg/kg, time 9.0 day. For orientation: A western blot detects proteins with antibodies after separation by electrophoresis.

Test [8] relates to H9c2. Put plainly: Cardioprotective activity against CoCl2-induced cellular hypoxia injury in rat H9c2 cells assessed as increase in PGC1-alpha level at 5 to 10 uM incubated for 24 hrs by Western blot analysis. The class given is functional, cell-based. The note with it: dose 5-10 µM.
The subject of test [9] is H9c2. Put plainly: Induction of H2S release in rat H9c2 cells incubated for 24 hrs by fluorescence based imaging analysis. The class given is functional, cell-based. As to conditions: dose 0.625-10 µM.
The test system of test [10] is H9c2. Put plainly: Cardioprotective activity against CoCl2-induced cellular hypoxia injury in rat H9c2 cells assessed as inhibition of ROS-induced cell damage at 5 to 10 uM incubated for 24 hrs by fluorescence based analysis. The class given is functional. As to conditions: dose 5-10 µM.
The target of test [11] is T1, NAD-dependent protein deacetylase sirtuin-1 (Homo sapiens) (UniProt Q96EB6).
T1 sequence (whole entry): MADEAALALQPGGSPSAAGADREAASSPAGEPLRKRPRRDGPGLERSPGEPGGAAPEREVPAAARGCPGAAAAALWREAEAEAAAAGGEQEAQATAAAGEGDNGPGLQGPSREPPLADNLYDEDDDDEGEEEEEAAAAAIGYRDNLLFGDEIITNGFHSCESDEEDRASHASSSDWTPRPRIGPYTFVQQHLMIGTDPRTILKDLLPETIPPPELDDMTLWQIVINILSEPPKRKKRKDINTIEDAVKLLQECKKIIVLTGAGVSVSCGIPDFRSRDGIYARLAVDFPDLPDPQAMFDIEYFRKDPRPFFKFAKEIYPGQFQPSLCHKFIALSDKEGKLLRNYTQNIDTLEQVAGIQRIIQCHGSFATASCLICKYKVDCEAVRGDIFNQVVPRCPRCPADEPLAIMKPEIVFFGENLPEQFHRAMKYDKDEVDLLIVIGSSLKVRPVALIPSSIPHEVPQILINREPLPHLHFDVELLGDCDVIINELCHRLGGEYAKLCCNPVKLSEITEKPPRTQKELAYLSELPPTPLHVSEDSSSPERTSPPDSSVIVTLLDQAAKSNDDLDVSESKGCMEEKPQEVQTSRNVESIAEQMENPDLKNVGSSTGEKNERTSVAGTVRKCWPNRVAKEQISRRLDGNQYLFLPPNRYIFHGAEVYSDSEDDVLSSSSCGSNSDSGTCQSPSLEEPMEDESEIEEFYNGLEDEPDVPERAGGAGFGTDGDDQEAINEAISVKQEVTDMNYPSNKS
Put plainly: Activation of SIRT1 (unknown origin) using RHKK-ac-AMC as substrate incubated for 2 hrs by FDL assay relative to control. As to conditions: filed as activator.

For test [12], the system named is H9c2. Put plainly: Antioxidant activity against CoCl2-induced cellular hypoxia injury in rat H9c2 cells assessed as increase in Nrf2 level at 5 to 10 uM incubated for 24 hrs by Western blot analysis. The note with it: dose 5-10 µM. Type of test: functional, cell-based.
For test [13], the system named is H9c2. Put plainly: Cardioprotective activity against CoCl2-induced cellular hypoxia injury in rat H9c2 cells assessed as cell viability at 0.625 uM incubated for 24 hrs by CCK-8 assay (reference value: 51.80 +/- 2.58 %). The class given is functional. The note with it: read-out: Activity. A general note: Tetrazolium dyes change colour on reduction, which living cells bring about.

Test [14] has as its system H9c2. Put plainly: Cardioprotective activity against CoCl2-induced cellular hypoxia injury in rat H9c2 cells assessed as ROS accumulation at 5 uM incubated for 24 hrs by DCFH-DA probe based analysis (reference value: 28.03 %). Type of test: functional.
Test [15] has as its system H9c2. Put plainly: Cardioprotective activity against CoCl2-induced cellular hypoxia injury in rat H9c2 cells assessed as rate of apoptosis at 10 uM incubated for 24 hrs in presence of GSSG by flow cytometry (reference value: 19.5 %). Type of test: functional.
Test [16] concerns the target T2, NAD-dependent protein deacetylase sirtuin-1 (Rattus norvegicus) (UniProt A0A0G2JZ79).
T2 sequence (whole entry): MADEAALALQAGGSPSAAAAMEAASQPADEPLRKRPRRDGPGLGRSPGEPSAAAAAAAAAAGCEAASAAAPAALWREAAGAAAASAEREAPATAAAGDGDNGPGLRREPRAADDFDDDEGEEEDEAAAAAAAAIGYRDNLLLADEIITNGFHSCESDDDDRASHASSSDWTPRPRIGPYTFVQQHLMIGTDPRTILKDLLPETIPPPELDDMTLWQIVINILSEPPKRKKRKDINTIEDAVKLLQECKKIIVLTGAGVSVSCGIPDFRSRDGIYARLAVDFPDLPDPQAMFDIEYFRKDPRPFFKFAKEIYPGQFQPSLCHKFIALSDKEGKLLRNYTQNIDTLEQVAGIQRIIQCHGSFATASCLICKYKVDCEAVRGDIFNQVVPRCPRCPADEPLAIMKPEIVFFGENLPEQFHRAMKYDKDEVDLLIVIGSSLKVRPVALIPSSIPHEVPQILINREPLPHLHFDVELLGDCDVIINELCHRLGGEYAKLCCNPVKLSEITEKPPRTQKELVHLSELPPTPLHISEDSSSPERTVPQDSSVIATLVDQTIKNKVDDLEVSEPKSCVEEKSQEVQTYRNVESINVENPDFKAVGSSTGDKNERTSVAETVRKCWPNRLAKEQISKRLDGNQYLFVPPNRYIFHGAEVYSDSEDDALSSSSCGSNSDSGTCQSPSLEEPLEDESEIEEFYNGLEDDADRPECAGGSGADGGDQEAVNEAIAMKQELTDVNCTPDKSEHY
Put plainly: Activation of SIRT1 in CoCl2-induced cellular hypoxia injury in rat H9c2 cells at 5 to 10 uM incubated for 24 hrs by Western blot analysis. The class given is cell-based. The note with it: filed as activator, dose 5-10 µM.

Test [17] relates to H9c2. Put plainly: Cardioprotective activity against CoCl2-induced cellular hypoxia injury in rat H9c2 cells assessed as increase in hypoxia-reduced ATP production in mitochondria at 5 to 10 uM incubated for 24 hrs by bioluminescence assay. Type of test: functional, cell-based. The note with it: dose 5-10 µM.

Activity calls are given as the source filed them. No cut-off for these calls is given here.

Take `C=CCSSCCC(=O)O[C@H]1CC[C@]2(C)[C@H]3C[C@@H](O)[C@@H]4[C@@H]([C@]5(C)CC[C@@H](C(C)(C)O)O5)CC[C@@]4(C)[C@]3(C)CC[C@H]2C1(C)C`: the outcome (in the test with Rattus norvegicus [1]; with H9c2 [6]; with Rattus norvegicus [7]; in the test with H9c2 [8]; in the test on H9c2 [12]; in test [16]) was Active. Moreover, in the test on H9c2 [17], the outcome was Active. Also, the Activity in test [2] is 30.7 µM; with Rattus norvegicus [3], “Dose-dependent-effect”; in test [5] it was 18.6%; in the test with H9c2 [9] it was “Dose-dependent-effect”; in test [11], 177%; in the test with H9c2 [14], 6.38%. Also, the Activity with H9c2 [15] is recorded as 8.01%. In addition, the inhibition result with H9c2 [4] and in the test on H9c2 [10] was “Active” throughout. Also, in the test with H9c2 [13], the viability at 0.625 µM was determined as 76.5%.

Values taken from ChEMBL document CHEMBL6120941, “Discovery of SIRT1-Activating Hydrogen Sulfide Donating Derivatives for Efficient Resistant of Myocardial Ischemic Injury” (J Med Chem, 2024).
